What is called AUC(0-t) is exposure summed from dosing to a finite time, without extrapolation to infinity. What is called Cmax is the peak of the concentration-time curve. The Tmax is the time from dosing to the highest level.

These results are taken from US20220380368A1, “SPIROCYCLIC ANDROGEN RECEPTOR PROTEIN DEGRADERS” (THE REGENTS OF THE UNIVERSITY OF MICHIGAN, priority 2019, published 2022).

Positions count from the first letter of the chain named. Read-outs that look alike come from different tables or passages of the source.

Data set [1] deals with AR-amplified prostate cancer cells. Conditions: cited from earlier work.
In data set [2] the target is T1, AR protein (Homo sapiens, UniProt P10275).
T1 construct: endogenous in cells; host or cells: VCaP
T1 sequence (P10275 1-920): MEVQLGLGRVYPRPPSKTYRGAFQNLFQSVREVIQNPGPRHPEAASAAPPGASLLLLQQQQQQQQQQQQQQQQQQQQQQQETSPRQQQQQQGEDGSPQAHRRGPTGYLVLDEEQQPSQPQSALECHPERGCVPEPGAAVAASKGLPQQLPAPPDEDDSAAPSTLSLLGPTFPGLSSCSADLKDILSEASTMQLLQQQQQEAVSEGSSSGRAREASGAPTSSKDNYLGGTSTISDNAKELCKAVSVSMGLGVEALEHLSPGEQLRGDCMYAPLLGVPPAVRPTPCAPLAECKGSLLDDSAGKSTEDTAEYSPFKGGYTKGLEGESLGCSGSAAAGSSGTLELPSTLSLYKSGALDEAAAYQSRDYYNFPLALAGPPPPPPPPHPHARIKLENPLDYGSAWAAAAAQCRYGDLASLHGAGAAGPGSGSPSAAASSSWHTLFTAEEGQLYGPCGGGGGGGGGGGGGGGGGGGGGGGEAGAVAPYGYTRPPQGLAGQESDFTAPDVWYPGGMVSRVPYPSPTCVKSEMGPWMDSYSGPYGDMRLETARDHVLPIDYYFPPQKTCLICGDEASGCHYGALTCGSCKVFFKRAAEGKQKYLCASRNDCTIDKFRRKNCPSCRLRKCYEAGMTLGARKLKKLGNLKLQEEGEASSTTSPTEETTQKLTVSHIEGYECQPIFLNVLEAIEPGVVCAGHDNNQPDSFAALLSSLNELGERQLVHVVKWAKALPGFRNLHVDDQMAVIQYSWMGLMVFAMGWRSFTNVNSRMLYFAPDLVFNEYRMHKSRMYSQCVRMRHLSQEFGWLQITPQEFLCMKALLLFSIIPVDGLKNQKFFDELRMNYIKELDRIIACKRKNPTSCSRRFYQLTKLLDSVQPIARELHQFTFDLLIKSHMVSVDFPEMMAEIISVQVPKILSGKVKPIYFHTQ
The data set can be described thus: Western blotting analysis of AR protein levels in VCaP cells, band quantification, DC50/DC90. It counts as cell-based. Conditions: prostate cancer Vcap cells, 24 h treatment. A digest of the protocol:
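VCaP cells treated with compounds, lysed in RIPA and probed for AR by Western blot with GAPDH loading control. Band intensities normalised to GAPDH; DC50 from curve fit, DC90 calculated from DC50 and Hill slope via four-parameter equation.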
(In general: In western blotting, separated proteins are transferred to a membrane and probed.)

The subject of data set [3] is AR protein. Put plainly: Western blotting analysis of AR protein levels in 22RV1 cells, band quantification, DC50/DC90. It counts as cell-based. The note with it: prostate cancer 22RV1 cells, 24 h treatment. How it is done: (§1) The appropriate cell line, e.g., prostate cancer LNCaP, Vcap, or 22RV1 cell line, was treated with Compounds of the Disclosure as indicated. The treated cells were lysed with RIPA buffer. The AR level in the cell lysates was examined by western blotting and a specific AR antibody (ab194196, Abcam, Cambridge, Mass. 02139) with concentration of 1:20,000. GAPDH was used as a loading control.
(§2) Bands were quantified with ImageJ software. The relative numbers of each band obtained from normalization with its corresponding GAPDH level were compared with Prism 8 software. The DC50 values were produced from Prism 8, and the DC90 values were calculated with an equation=Bottom+(Top−Bottom)/(1+10^((Log EC50−X)*HillSlope) based on DC50 and Hillslope values.

For data set [4], the target named is T2, AR protein (Homo sapiens, UniProt P10275, T878A).
T2 construct: endogenous in cells; host or cells: LNCaP
T2 sequence (P10275 1-920 T878A): T1 sequence (P10275 1-920) with T878A
The data set can be described thus: Western blotting analysis of AR protein levels in LNCaP cells, band quantification, DC50/DC90. It counts as cell-based. Conditions: prostate cancer LNCaP cells, 24 h treatment. How it is done: as §1, §2

Data set [5] is described as follows: Mouse PK studies after oral and IV dosing. It is filed as in vivo. On the procedure:
The pharmacokinetics of representative Compounds of the Disclosure were determined after oral and IV dosing at the concentrations indicated in mouse (Table 7). […] The vehicles used in these studies are either (i) 10% PEG400+90% PBS (adjusted to pH to 8.0 by 0.5 N NaOH); or (ii) 100% PEG200.

Data set [6] has as its system AR protein. The data set can be described thus: AR degradation in MDA-MB-453 cells (Western blotting). It counts as cell-based. Conditions: 24 hr treatment. How it is done:
as §1, §2

[7] abbreviates: calculated from DC50 and Hillslope.

`Cc1ncsc1-c1ccc(CNC(=O)C2C[C@@H](O)CN2C(=O)[C@@H](NC(=O)COCCCCOc2ccc(-c3ccc(N4C(=S)N(c5ccc(C#N)c(C(F)(F)F)c5)C(=O)C4(C)C)cc3)cc2)C(C)(C)C)cc1` (stereo partly drawn) [ARCC-4, (4R)-1-((S)-2-(2-(4-((4′-(3-(4-cyano-3-(trifluoromethyl)phenyl)-5,5-dimethyl-4-oxo-2-thioxoimidazolidin-1-yl)-[1,1′-biphenyl]-4-yl)oxy)butoxy)acetamido)-3,3-dimethylbutanoyl)-4-hydroxy-N-(4-(4-methylthiazol-5-yl)benzyl)pyrrolidine-2-carboxamide]: the “inducing apoptosis and inhibiting proliferation, compared with enzalutamide” value in data set [1] is “more potent and effective than enzalutamide”.
Turning to `C[C@H]1CC2(CCN(c3ccc(C(=O)N4CCC(N5Cc6cc7c(cc6C5)C(=O)N(C5CCC(=O)NC5=O)C7=O)CC4)cc3)CC2)CN1c1ccc(C#N)c(Cl)c1` (stereo partly drawn) [Cpd. No. 307, 2-chloro-4-((3S)-8-(4-(4-(6-(2,6-dioxopiperidin-3-yl)-5,7-dioxo-3,5,6,7-tetrahydropyrrolo[3,4-f]isoindol-2(1H)-yl)piperidine-1-carbonyl)phenyl)-3-methyl-2,8-diazaspiro[4.5]decan-2-yl)benzonitrile], the results for the DC90 in data set [2] (setting [7]), in data set [3] (setting [7]) and in data set [4] (setting [7]) were 199 pM, 3100 pM and 110 pM, respectively. Also, the DC50 in data set [2] (read-out: DC50) amounted to 46 pM; in data set [3], 900 pM; in data set [4] (read-out: DC50) it was 82 pM. Besides, the F in data set [5] (PO 5 mg/kg vs IV 2 mg/kg) is recorded as 67%. Further, the AUC(0-t) in data set [5] (in vivo, iv, 2 mg/kg, IV, dose 2 mg/kg, read-out: IV AUC(0 − t)) turned out to be 50500 ng·h/mL; in data set [5] (in vivo, po, 5 mg/kg, PO, dose 5 mg/kg, read-out: PO AUC(0 − t)) it was 85200 ng·h/mL. Also, the clearance in data set [5] (in vivo, iv, 2 mg/kg, IV, dose 2 mg/kg, read-out: IV Cl (converted)) was 0.667 mL/min/kg. In addition, the half-life was 4.34 h in data set [5] (in vivo, iv, 2 mg/kg, IV, dose 2 mg/kg, read-out: IV T1/2 (converted)) and 4.4 h in data set [5] (in vivo, po, 5 mg/kg, PO, dose 5 mg/kg, read-out: PO T1/2 (converted)). For the same compound, in data set [5] (in vivo, iv, 2 mg/kg, IV, dose 2 mg/kg, read-out: IV VSS), the Vd worked out at 0.23 L/kg. Moreover, the Cmax in data set [5] (in vivo, po, 5 mg/kg) turned out to be 9120 ng/mL. For the same compound, the Tmax in data set [5] (in vivo, po, 5 mg/kg) turned out to be 2 h.
`N#Cc1ccc(OC2CC3(C2)CN(C(=O)c2ccc(C4CCN(CC5CCN(c6ccc7c(c6)C(=O)N(C6CCC(=O)NC6=O)C7=O)CC5)CC4)cc2)C3)cc1Cl` (centres unmarked) [compound 480]: in data set [6], the “degradation at 10 nM” value was “B (>50% degradation but <90% (24 hr treatment))” and the “degradation at 100 nM” value is “A (>90% degradation (24 hr treatment))”.
Taken in the same sequence, the figures for `N#Cc1ccc(N2CC3(CN(C(=O)c4ccc(C5CCN(CC6CCN(c7ccc8c(c7)C(=O)N(C7CCC(=O)NC7=O)C8=O)CC6)CC5)cc4)C3)C2)cc1Cl` (centres unmarked) [compound 481] were “B (>50% degradation but <90% (24 hr treatment))” and “A (>90% degradation (24 hr treatment))”.
